Tests used:
Format in all cases: cell-based
ExpiCHO-S™ cells = test: Rabbit IgG secretion by ExpiCHO-S cells stably expressing Rheb variants (Easy-Titer Rabbit IgG Assay); settings: single replicate; compared to Rheb-WT or Rheb-Y35N
Procedure: Materials and Methods: ExpiCHO-S™ cells were purchased from ThermoFischer Scientific and cultured in ExpiCHO™ Expression Medium at 37° C. at 8% CO2. […] Transfected cells were grown in 600 μg/mL […] for 6 weeks. Surviving cells were plated as single cells in a 96-well plate and monoclonal colonies selected for FLAG-Rheb expression.
Rabbit IgG secretion was determined using the ExpiCHO™ Expression system according to the manufacturer's instructions. Briefly, ExpiCHO™ cells expressing either endogenous Rheb or stably expressing exogenous Rheb were seeded at 6×10^6 cells/mL in 25 mL of ExpiCHO™ Expression Medium and transfected with 20 μg of a pcDNA3.1 vector encoding heavy and light chains of Rabbit IgG at a 1:2 ratio of heavy chain:light chain using ExpiFectamine™ CHO Reagent. 24 hours after transfection, cells were feed with ExpiCHO™ Feed and ExpiFectamine™ CHO Enhancer and transferred to 32° C., 5% CO2. Cells were allowed to grow for 10 days with 100 μL samples taken every day. After 10 days, Cells were pelleted by centrifugation at 4000×g for 30 minutes at 4° C. and the supernatant filtered through a […] PVFD filter and collected. IgG yield was determined using Easy-Titer™ Rabbit IgG Assay kit and calculated from a standard curve.

[1] = system: mTORC1 and ER Stress activation markers; test: Western blot for mTORC1 and ER stress activation markers in ExpiCHO cells stably expressing Rheb variants
[2] = system: CHO cells stably expressing Gaussia luciferase (GLuc); test: Secreted Gaussia luciferase assay in CHO cells stably expressing GLuc transfected with Rheb vectors
Procedure: CHO cells stably expressing Firefly luciferase (FLuc) or Gaussia luciferase (GLuc) as indicated were transfected using Lipofectamine3000 with an empty vector (EV) or vectors for Rheb WT, S21L, T23M, G29S, Y35N or E40K and also treated with the mTOR inhibitor AZD8055 at 100 nM for the total duration where indicated. Fluc and GLuc assays were performed 24 h after transfection and then every 48 h for 7 days. Assay results are normalised to cell number. GLuc-CHO cells were harvested for SDS-PAGE and Western Blot analysis at the 168 h (7-day) time-point to probe for intracellular GLuc, FLAG (Rheb) and actin, as ‘loading control’. […] However, Rheb-T23M and —Y35N caused a significant 3-fold increase in secreted Gaussia luciferase that was also seen with E40K and was prevented by treatment with AZD8055 (C/D [histogram of day 7]). In (E), secreted GLuc was monitored every 4 h from 24 h to 60 h showing the rate of secretion of GLuc was higher when Rheb-T23M is expressed as compared to Rheb-Y35N. The pattern for intracellular levels of Gaussia luciferase (assessed by immunoblot of cell lysates harvested at 7 days post transfection) more closely resemble those intracellular firefly luciferase (F) with little change compared to either the empty vector or WT while still retaining heightened mTORC1 signalling as indicated by the elevated levels of P-S6K1 Thr389 compared to cells transfected with the empty vector. CHO cells expressing Rheb-T23M, Y35N and E40K show a small increases in general protein synthesis but a marked increase in secreted Gaussia protein that is blocked by mTOR inhibition. Thus, Rheb[T23M] selectively promotes production of the secreted protein GLuc in a process that requires mTOR signalling.
Constructs were introduced into CHO cells using Lipofectamine3000 (Life Technologies) according to the manufacturer's protocol. Cell lines stably expressing secreted luciferase were generated by cloning the GLuc gene with a signal sequence from Nanolight Technology (see paper sent with this version) and cloning this into the pcDNA4 commercially available vector where gene expression was driven by a CMV promoter. The subsequent vectors were transfected, using lipofectamine, into CHO-S freestyle suspension cells and grown in CD-CHO media and then stable transfectant pools selected by addition of zeocin antibiotic. Once stable pools had emerged these were subjected to limited dilution cloning to obtain a range of pools with different secreted GLuc expression levels. Methods as are described, for example, in Josse et al. (2009) Biotechnology and Bioengineering 105: 556-566.
For Gaussia luciferase, we employed the BioLux® Gaussia Luciferase Assay Kit (New England Biolabs (NEB), Cat. No. E3300S) and for firefly luciferase the Luciferase Assay System from Promega (Cat. No. E1500). Cells were grown in Ham's F12 medium F12 nutrient mix, Ham's (Life Technologies, Cat. No. 11765054).
CHO cells stably expressing Firefly luciferase (FLuc; which is cytoplasmic) or Gaussia luciferase (GLuc; which is secreted) as indicated were transfected using Lipofectamine3000 with an empty vector (EV) or vectors for Rheb WT, S21L, T23M, G29S, Y35N or E40K and treated with the mTOR inhibitor AZD8055 at 100 nM for the total duration where appropriate. Fluc and GLuc assays were performed at 24 h after transfection and then every 48 h for 7 days. Assay results were normalised to cell number. […]

Substance: Rheb-T23M: human Rheb protein with a methionine variant at residue 23 (T23M), SEQ ID NO. 3
- rate of IgG secretion determined daily over 10 days (ExpiCHO-S™ cells): maintain a constant rate of IgG secretion over a longer period
- ER stress response (Western blot markers) [1]: mild ER stress response
- mTORC1 signalling (Western blot markers) [1]: increased mTORC1 signalling
- increase in secreted Gaussia luciferase ([2]; day 7, normalised to cell number): 3 fold
- rate of secretion of GLuc ([2]; monitored every 4 h from 24 h to 60 h, compared to Rheb-Y35N): higher

Reference: patent publication US12492232B2, “Methods for producing proteins” (South Australian Health and Medical Research Institute …, priority 2018, dated 2025)
